Values joined by “and” are separate entries in the source; they are usually repeats but may differ in a detail not shown here. Equal values may be shown once.
Tests used:
IDE [1] = biological target: T1, IDE (Homo sapiens, UniProt P14735); test: biochemical; conditions: peptide at 10 uM, insulin 100 nM, normalized to DMSO-only and no-enzyme controls
T1 construct: made in house; host or cells: bacteria
T1 sequence (P14735 1-1019): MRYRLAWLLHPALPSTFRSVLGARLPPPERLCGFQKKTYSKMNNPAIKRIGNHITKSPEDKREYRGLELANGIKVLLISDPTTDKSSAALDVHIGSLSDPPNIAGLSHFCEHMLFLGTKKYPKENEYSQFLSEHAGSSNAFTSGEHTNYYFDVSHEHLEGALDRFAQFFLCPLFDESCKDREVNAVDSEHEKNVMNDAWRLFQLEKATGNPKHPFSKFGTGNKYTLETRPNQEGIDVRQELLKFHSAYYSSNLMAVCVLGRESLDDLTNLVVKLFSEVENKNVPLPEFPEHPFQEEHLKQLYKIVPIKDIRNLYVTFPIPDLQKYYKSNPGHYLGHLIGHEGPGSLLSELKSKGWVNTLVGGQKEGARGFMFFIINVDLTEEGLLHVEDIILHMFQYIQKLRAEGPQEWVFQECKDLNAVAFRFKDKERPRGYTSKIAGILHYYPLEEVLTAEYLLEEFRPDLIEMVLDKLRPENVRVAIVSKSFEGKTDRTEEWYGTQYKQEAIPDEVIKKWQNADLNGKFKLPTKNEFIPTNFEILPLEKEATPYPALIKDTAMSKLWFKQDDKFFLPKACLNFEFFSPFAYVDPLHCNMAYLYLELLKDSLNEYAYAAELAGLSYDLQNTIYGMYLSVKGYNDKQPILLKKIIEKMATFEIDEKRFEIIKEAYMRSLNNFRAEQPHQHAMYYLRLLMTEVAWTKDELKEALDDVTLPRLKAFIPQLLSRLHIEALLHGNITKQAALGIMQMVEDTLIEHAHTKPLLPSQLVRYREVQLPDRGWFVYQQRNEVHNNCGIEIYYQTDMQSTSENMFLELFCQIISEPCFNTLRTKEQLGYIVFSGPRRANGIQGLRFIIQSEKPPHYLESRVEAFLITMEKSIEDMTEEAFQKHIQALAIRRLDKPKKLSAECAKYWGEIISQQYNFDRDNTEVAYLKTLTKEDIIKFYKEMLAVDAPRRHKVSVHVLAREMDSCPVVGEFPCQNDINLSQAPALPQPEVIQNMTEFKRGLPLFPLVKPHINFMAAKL
From the text: The six selected peptide sequences (C7C-1, C7C-2, 12–1, 12–2, 12–3 and 12–4) were synthesized, together with a variety of modifications, yielding a total of 25 peptides (Table 1). For the 12-mer peptides, we synthesized variants of the parent peptides truncated at one or both termini, to test whether the entire sequence was necessary or not, in the hope that shorter, and thus less expensive, sequences might be effective. Other modifications included N-terminal acetylation and C-terminal amidation, included to mimic the charge state of the peptides when incorporated in the phage coat protein (Table 1). To assess the extent to which these peptide sequences inhibit IDE, we quantified their potency in protease activity assays using recombinant human IDE and two different substrates: FRET1, a fluorogenic peptide, and recombinant human insulin.
(§1) IDE activity was quantified by monitoring the degradation of Mca-[…](Dnp) (FRET1, 5 μM), fluoresceinated and biotinylated amyloid ß-protein (FAßB; 500 nM) or recombinant human insulin (50 nM) in PBS supplemented with 0.05% BSA. FRET1 degradation was measured by changes in fluorescence (λex = 340 nm, λem = 420 nm); FAßB degradation was monitored by fluorescence polarization (λex = 488 nm, λem = 525 nm), as described; and insulin degradation was quantified by ELISA. In vitro activity assays incorporated recombinant human IDE (1 nM) purified from bacteria. For quantitation of insulin degradation in primary murine skin fibroblasts, cells (1 x 10^5/well) were plated in 96-well plates and maintained in DMEM supplemented with 10% fetal bovine serum (FBS), 2mM glutamine, penicillin and streptomycin. After addition of insulin (10 nM or 100 nM), samples of conditioned medium were removed daily and quickly frozen, then insulin levels were quantified in parallel by ELISA according to manufacturer’s recommendations (Crystal Chem, Downers Grove, IL, USA). Assessment of the activity of P12-3A against a variety of matrix-metalloproteases was conducted using the Matrix Metalloproteinase (MMP) Inhibitor Profiling Kit, Fluorometric RED (Enzo Life Sciences, Inc., Farmingdale, NY, USA) according to manufacturer’s recommendations using the broad-spectrum MMP inhibitor, NNGH, as a positive control.

IDE [2] = biological target: T1, IDE; test: biochemical; conditions: N 4
Procedure: The six selected peptide sequences (C7C-1, C7C-2, 12–1, 12–2, 12–3 and 12–4) were synthesized, together with a variety of modifications, yielding a total of 25 peptides (Table 1). […] Other modifications included N-terminal acetylation and C-terminal amidation, included to mimic the charge state of the peptides when incorporated in the phage coat protein (Table 1).
as §1, with “FRET1 degradation was measured by changes in fluorescence (λex = 340 nm, λem = 420 nm); FAßB degradation was monitored by fluorescence polarization (λex = 488 nm, λem = 525 nm), as described; and insulin degradation was quantified by ELISA.” left out

IDE [3] = biological target: T1, IDE; test: Vulnerability of peptides to degradation by IDE: 0 vs 4 h pre-incubation, then FRET1 assay; assay type: biochemical; conditions: relative to DMSO-only controls, individual runs
Procedure: as §1, with “FRET1 degradation was measured by changes in fluorescence (λex = 340 nm, λem = 420 nm); FAßB degradation was monitored by fluorescence polarization (λex = 488 nm, λem = 525 nm), as described; and insulin degradation was quantified by ELISA.” left out

LPWCTPHC [P12-3D]
percent decrease in insulin detected by ELISA, Replicate 1 (IDE [1]): 77.7% | percent decrease in insulin detected by ELISA, Replicate 2 (IDE [1]): 71.2% | percent decrease in insulin detected by ELISA, Replicate 3 (IDE [1]): 96.7% | percent decrease in insulin detected by ELISA, Replicate 4 (IDE [1]): 88.5% | percent decrease in insulin detected by ELISA, Mean (IDE [1]; N=4): 83.5% | Percent activity at 500 uM, Mean (IDE [2]; initial test, percent of initial velocity relative to DMSO-only controls): 3.0% | Percent activity at 500 uM, Mean (IDE [2]; judged as IC50 <100 uM?): 48.5% | Percent Activity (normalized initial velocity of FRET1 hydrolysis) (IDE [3]; 0-hr incubation, Cmpd 0.12207 uM): 96.4522% and 96.759% and 99.5993% | Percent Activity (normalized initial velocity of FRET1 hydrolysis) (IDE [3]; 0-hr incubation, Cmpd 0.488281 uM): 102.379% and 100.264% and 105.198% | Percent Activity (normalized initial velocity of FRET1 hydrolysis) (IDE [3]; 0-hr incubation, Cmpd 1.95312 uM): 104.101% and 99.4736% and 108.303% | Percent Activity (normalized initial velocity of FRET1 hydrolysis) (IDE [3]; 0-hr incubation, Cmpd 7.8125 uM): 98.6262% and 96.0429% and 106.212% | Percent Activity (normalized initial velocity of FRET1 hydrolysis) (IDE [3]; 0-hr incubation, Cmpd 31.25 uM): 88.0717% and 83.2988% and 94.9104% | Percent Activity (normalized initial velocity of FRET1 hydrolysis) (IDE [3]; 0-hr incubation, Cmpd 125 uM): 50.9238% and 50.5662% and 58.9795% | Percent Activity (normalized initial velocity of FRET1 hydrolysis) (IDE [3]; 0-hr incubation, Cmpd 500 uM): 18.0015% and 16.3891% and 26.5742% | Percent Activity (normalized initial velocity of FRET1 hydrolysis) (IDE [3]; 4-hr incubation, Cmpd 0.12207 uM): 81.980% and 88.388% | Percent Activity (normalized initial velocity of FRET1 hydrolysis) (IDE [3]; 4-hr incubation, Cmpd 0.488281 uM): 82.055% and 87.340% | Percent Activity (normalized initial velocity of FRET1 hydrolysis) (IDE [3]; 4-hr incubation, Cmpd 1.95312 uM): 95.585% and 92.840% | Percent Activity (normalized initial velocity of FRET1 hydrolysis) (IDE [3]; 4-hr incubation, Cmpd 7.8125 uM): 94.853% and 93.557% | Percent Activity (normalized initial velocity of FRET1 hydrolysis) (IDE [3]; 4-hr incubation, Cmpd 31.25 uM): 102.800% and 95.281% | Percent Activity (normalized initial velocity of FRET1 hydrolysis) (IDE [3]; 4-hr incubation, Cmpd 125 uM): 90.299% and 99.861% | Percent Activity (normalized initial velocity of FRET1 hydrolysis) (IDE [3]; 4-hr incubation, Cmpd 500 uM): 61.928% and 59.590%

— publication PMC5814047, “Peptidic inhibitors of insulin-degrading enzyme with potential for dermatological applications discovered via phage display” (PLoS ONE, 2018)
